Reference: ChEMBL document CHEMBL5625173, “Antimycobacterial pyridine carboxamides: From design to in vivo activity” (Eur J Med Chem, 2023)
Values after ≈ are worked out from the molar mass of the structure shown.

Columns and labels:
Type in all cases: functional
[1] = system: Mycobacterium tuberculosis; experiment: Antimycobacterial activity against Mycobacterium tuberculosis H37Rv overexpressing folP1 by alamar blue staining based microplate analysis
[2] = system: Mycobacterium tuberculosis; experiment: Antimycobacterial activity against Mycobacterium tuberculosis H37Rv overexpressing ribD by alamar blue staining based microplate analysis
[3] = system: Mycobacterium tuberculosis; experiment: Antimycobacterial activity against Mycobacterium tuberculosis H37Rv overexpressing folC by alamar blue staining based microplate analysis
[4] = system: Mycobacterium tuberculosis; experiment: Antimycobacterial activity against Mycobacterium tuberculosis H37Rv overexpressing dfrA by alamar blue staining based microplate analysis

Row | Compound | MIC [1] [µg/mL] | MIC [2] [µg/mL] | MIC [3] [µg/mL] | MIC [4] [µg/mL]
1 | Nc1ccc(C(=O)O)c(O)c1 [AMINOSALICYLIC ACID] | 0.02 (≈ 0.131 µM) | 2.5 (≈ 16.3 µM) | 0.02 (≈ 0.131 µM) | > 5
2 | O=C(Nc1ccc(C(=O)[O-])c(O)c1)c1ccc2ccccc2n1.[Na+] | 8 | 8 | 8 | 8
3 | O=C(Nc1ccc(C(=O)O)c(O)c1)c1ccc2ccccc2n1 | 8 (≈ 25.9 µM) | 8 (≈ 25.9 µM) | 8 (≈ 25.9 µM) | 8 (≈ 25.9 µM)
